# Test results from PubChem BioAssay (NCI).
#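 Each compound was tested at five concentrations against cells in 96-well plates for 48 hours. Abbreviation: GI50, concentration required for 50% inhibition of growth. TGI: concentration producing complete growth inhibition.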
# How the values were obtained:
# Assay in all cases: NCI-60 cell line screen, 48 h
# HCT-116 colon = test system: HCT-116 colon
# T-47D breast = test system: T-47D breast
# DU-145 prostate = test system: DU-145 prostate
# SN12C renal = test system: SN12C renal
# OVCAR-8 ovarian = test system: OVCAR-8 ovarian
# SW-620 colon = test system: SW-620 colon
# KM12 colon = test system: KM12 colon
# BT-549 breast = test system: BT-549 breast
# 786-0 renal = test system: 786-0 renal
# DMS 114 small cell lung = test system: DMS 114 small cell lung
# KM20L2 colon = test system: KM20L2 colon
# DLD-1 colon = test system: DLD-1 colon
Compound,TGI (HCT-116 colon) [µM],TGI (T-47D breast) [µM],TGI (DU-145 prostate) [µM],TGI (SN12C renal) [µM],TGI (OVCAR-8 ovarian) [µM],TGI (SW-620 colon) [µM],GI50 (HCT-116 colon) [µM],GI50 (T-47D breast) [µM],GI50 (KM12 colon) [µM],TGI (KM12 colon) [µM],GI50 (BT-549 breast) [µM],TGI (BT-549 breast) [µM],GI50 (DU-145 prostate) [µM],GI50 (SN12C renal) [µM],GI50 (SW-620 colon) [µM],TGI (786-0 renal) [µM],TGI (DMS 114 small cell lung) [µM],TGI (KM20L2 colon) [µM],TGI (DLD-1 colon) [µM],GI50 (OVCAR-8 ovarian) [µM]
CCOP(=O)(OCC)C(Cc1c[nH]c2ccccc12)C(=O)O (stereo unspecified),> 100,> 100,> 100,> 100,> 100,> 100,–,–,–,–,–,–,–,–,–,–,–,–,–,–
Fc1ccc(C2CC(c3cccc(Nc4ccncc4)c3)=NN2c2ccccc2)cc1 (stereo unspecified),3.12,4.62,3.91,3.21,–,3.21,1.49,2.04,1.63,3.07,1.68,3.46,1.98,1.71,1.69,–,–,–,–,–
CC(O)C1(O)C(O)CC(OC2c3cc4c(c(O)c3[C@@H]3C[C@@]2(C)OC32C=c3cc[nH]c3=N2)C(=O)c2cccc(O)c2C4=O)OC1C (stereo partly specified),3.31,9.07,8.8,1.13,4.75,5.96,–,–,–,3.77,–,19.3,–,–,–,4.98,–,–,–,–
CC(C)=NC(C(=O)O)C(C)(C)S (stereo unspecified),> 100,> 100,> 100,> 100,> 100,> 100,–,–,–,> 100,–,> 100,–,–,–,> 100,–,–,–,–
Cc1ccc(S(=O)(=O)NCCCSCCN)cc1,> 100,> 100,> 100,> 100,> 100,> 100,–,–,–,> 100,–,–,–,–,–,–,–,–,–,–
C[n+]1c(-c2ccc(/C=N\Nc3ccnc(N/N=C/c4ccc(-c5cn6ccsc6[n+]5C)cc4)n3)cc2)cn2ccsc21,–,–,78,> 100,> 100,> 100,–,–,–,84.5,–,–,–,–,–,32.8,–,–,–,–
Nc1nc(N)c(N=Nc2ccccc2)c(=O)[nH]1,> 100,–,–,> 100,> 100,> 100,–,–,–,> 100,–,–,–,–,–,> 100,71.2,> 100,> 100,–
OCC1NC(CO)C(O)C1O (stereo unspecified),> 100,> 100,> 100,> 100,> 100,> 100,–,–,–,> 100,–,> 100,–,–,–,–,–,–,–,–
Nc1ccc(C2(c3ccc(N)cc3)C3CC4CC(C3)CC2C4)cc1,42.1,42.8,–,45.7,35.5,28.8,–,–,–,25.3,–,25.2,–,–,–,–,–,–,–,–
CC(=O)OC/C=C\Cn1ncc(=O)[nH]c1=O,–,69.9,42.8,42,66.1,40.5,–,–,–,31.3,–,–,–,–,–,–,–,–,–,–
O=C(N[C@H](CO)[C@H](O)c1ccc([N+](=O)[O-])cc1)C(Cl)Cl,> 100,–,> 100,> 100,> 100,> 100,–,–,–,> 100,–,> 100,–,–,–,> 100,> 100,> 100,> 100,–
C=C(CN(C)C)C(=O)c1ccccc1,16.7,4.93,30.2,38.7,44.6,5.07,–,–,–,42.2,–,45,–,–,–,13.5,11.1,39.8,11.5,–
COc1ccc(/C=C/c2cc(O)cc(OC3OC(CO)C(O)C(O)C3O)c2)cc1O (stereo unspecified),> 100,> 100,> 100,> 100,> 100,> 100,–,–,–,86.5,–,> 100,–,–,–,> 100,–,–,–,–
COc1ncnc2c(Cl)c(C(O)c3ccccc3)c(Cl)cc12 (stereo unspecified),44.1,> 100,> 100,86.8,> 100,92.6,–,–,–,> 100,–,66.1,–,–,–,–,–,–,–,–
COc1ccc(CCn2ccc(C)n2)c(OC)c1,> 100,> 100,> 100,> 100,> 100,> 100,–,–,–,> 100,–,> 100,–,–,–,–,–,–,–,–
O=S1(=O)C[C@H](NCc2ccccc2)[C@H](NCc2ccccc2)C1,> 100,86.4,> 100,> 100,> 100,> 100,–,–,–,> 100,–,> 100,–,–,–,–,–,–,–,–
CC(C)N(CCNc1nc(C(Cl)(Cl)Cl)nc2cc(Cl)ccc12)C(C)C,2.66,5.08,3.76,3.76,3.4,3.09,1.31,2.24,1.32,2.83,–,–,1.61,1.69,1.48,–,–,–,–,1.83
